Results taken from paper PMC9329436, “Optimization of the 4-anilinoquin(az)oline scaffold as epidermal growth factor receptor (EGFR) inhibitors for chordoma utilizing a toxicology profiling assay platform” (Scientific Reports, 2022).
Where two headings read alike, the source gives them in different places.

What was measured:
Type in all cases: biochemical
[1] = target: 320 wild-type protein kinases (Homo sapiens, UniProt P78527); settings: DNA-PK, singlicate
From the text: (§1) Table S4. Profiling of two compounds at two concentrations against 320 wild-type protein kinases; singlicate measurement; Residual activities (% of control).

[2] = target: T1, 320 wild-type protein kinases (Homo sapiens, UniProt Q05513); settings: PKC-zeta, singlicate
T1 sequence (Q05513 1-592): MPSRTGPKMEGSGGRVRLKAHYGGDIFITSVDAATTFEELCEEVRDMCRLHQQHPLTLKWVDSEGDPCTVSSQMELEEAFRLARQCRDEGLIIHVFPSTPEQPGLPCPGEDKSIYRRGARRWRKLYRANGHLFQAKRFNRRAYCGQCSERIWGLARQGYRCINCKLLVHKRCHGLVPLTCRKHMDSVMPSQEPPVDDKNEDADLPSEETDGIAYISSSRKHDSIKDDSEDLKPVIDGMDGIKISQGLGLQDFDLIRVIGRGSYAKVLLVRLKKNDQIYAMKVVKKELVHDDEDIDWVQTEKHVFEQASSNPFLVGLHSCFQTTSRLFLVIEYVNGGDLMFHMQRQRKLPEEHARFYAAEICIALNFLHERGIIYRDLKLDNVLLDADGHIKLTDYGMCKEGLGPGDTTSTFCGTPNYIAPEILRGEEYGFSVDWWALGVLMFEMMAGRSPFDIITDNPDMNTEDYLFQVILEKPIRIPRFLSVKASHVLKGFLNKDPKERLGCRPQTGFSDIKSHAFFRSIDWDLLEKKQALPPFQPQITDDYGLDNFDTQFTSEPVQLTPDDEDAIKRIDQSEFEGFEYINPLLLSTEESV
From the text: as §1

[3] = target: 320 wild-type protein kinases (Homo sapiens, UniProt Q07912); settings: singlicate
From the text: as §1

[4] = target: T2, 320 wild-type protein kinases (Homo sapiens, UniProt Q9UL54); settings: kinase TAOK2, singlicate
T2 sequence (Q9UL54 1-1235): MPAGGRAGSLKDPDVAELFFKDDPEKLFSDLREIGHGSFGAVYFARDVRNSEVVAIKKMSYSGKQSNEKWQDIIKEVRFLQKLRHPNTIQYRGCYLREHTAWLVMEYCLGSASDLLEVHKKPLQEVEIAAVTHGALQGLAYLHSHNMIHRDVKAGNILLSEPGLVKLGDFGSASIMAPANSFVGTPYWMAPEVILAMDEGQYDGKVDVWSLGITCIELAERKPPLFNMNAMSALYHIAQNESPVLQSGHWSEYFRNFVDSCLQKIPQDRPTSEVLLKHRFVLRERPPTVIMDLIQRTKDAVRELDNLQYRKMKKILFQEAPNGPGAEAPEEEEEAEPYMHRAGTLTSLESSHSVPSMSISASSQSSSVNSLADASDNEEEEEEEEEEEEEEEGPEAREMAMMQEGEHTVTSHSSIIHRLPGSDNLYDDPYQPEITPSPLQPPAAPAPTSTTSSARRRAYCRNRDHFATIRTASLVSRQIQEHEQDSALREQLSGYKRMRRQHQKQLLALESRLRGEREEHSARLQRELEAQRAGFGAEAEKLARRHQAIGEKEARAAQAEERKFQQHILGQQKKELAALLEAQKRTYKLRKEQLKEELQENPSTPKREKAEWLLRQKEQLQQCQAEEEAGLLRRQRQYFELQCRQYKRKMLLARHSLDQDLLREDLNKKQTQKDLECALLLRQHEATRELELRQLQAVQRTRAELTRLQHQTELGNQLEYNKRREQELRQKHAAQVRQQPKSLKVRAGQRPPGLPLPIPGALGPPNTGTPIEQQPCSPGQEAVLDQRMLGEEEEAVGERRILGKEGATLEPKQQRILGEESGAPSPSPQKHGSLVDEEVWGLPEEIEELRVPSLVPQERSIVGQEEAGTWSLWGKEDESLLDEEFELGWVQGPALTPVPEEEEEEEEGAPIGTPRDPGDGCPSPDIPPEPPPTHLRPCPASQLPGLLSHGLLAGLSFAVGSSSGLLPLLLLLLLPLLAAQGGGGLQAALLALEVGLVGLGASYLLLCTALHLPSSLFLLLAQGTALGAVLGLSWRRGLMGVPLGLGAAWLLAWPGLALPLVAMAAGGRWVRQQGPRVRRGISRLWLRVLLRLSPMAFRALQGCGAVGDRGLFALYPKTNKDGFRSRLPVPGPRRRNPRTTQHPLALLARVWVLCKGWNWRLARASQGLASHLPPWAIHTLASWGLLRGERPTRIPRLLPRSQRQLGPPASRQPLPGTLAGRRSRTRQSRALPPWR
From the text: as §1

[5] = target: 320 wild-type protein kinases (Homo sapiens, UniProt Q9H422); settings: singlicate
From the text: as §1

Chain of 320 wild-type protein kinases (Homo sapiens, UniProt P78527) (P78527 whole entry): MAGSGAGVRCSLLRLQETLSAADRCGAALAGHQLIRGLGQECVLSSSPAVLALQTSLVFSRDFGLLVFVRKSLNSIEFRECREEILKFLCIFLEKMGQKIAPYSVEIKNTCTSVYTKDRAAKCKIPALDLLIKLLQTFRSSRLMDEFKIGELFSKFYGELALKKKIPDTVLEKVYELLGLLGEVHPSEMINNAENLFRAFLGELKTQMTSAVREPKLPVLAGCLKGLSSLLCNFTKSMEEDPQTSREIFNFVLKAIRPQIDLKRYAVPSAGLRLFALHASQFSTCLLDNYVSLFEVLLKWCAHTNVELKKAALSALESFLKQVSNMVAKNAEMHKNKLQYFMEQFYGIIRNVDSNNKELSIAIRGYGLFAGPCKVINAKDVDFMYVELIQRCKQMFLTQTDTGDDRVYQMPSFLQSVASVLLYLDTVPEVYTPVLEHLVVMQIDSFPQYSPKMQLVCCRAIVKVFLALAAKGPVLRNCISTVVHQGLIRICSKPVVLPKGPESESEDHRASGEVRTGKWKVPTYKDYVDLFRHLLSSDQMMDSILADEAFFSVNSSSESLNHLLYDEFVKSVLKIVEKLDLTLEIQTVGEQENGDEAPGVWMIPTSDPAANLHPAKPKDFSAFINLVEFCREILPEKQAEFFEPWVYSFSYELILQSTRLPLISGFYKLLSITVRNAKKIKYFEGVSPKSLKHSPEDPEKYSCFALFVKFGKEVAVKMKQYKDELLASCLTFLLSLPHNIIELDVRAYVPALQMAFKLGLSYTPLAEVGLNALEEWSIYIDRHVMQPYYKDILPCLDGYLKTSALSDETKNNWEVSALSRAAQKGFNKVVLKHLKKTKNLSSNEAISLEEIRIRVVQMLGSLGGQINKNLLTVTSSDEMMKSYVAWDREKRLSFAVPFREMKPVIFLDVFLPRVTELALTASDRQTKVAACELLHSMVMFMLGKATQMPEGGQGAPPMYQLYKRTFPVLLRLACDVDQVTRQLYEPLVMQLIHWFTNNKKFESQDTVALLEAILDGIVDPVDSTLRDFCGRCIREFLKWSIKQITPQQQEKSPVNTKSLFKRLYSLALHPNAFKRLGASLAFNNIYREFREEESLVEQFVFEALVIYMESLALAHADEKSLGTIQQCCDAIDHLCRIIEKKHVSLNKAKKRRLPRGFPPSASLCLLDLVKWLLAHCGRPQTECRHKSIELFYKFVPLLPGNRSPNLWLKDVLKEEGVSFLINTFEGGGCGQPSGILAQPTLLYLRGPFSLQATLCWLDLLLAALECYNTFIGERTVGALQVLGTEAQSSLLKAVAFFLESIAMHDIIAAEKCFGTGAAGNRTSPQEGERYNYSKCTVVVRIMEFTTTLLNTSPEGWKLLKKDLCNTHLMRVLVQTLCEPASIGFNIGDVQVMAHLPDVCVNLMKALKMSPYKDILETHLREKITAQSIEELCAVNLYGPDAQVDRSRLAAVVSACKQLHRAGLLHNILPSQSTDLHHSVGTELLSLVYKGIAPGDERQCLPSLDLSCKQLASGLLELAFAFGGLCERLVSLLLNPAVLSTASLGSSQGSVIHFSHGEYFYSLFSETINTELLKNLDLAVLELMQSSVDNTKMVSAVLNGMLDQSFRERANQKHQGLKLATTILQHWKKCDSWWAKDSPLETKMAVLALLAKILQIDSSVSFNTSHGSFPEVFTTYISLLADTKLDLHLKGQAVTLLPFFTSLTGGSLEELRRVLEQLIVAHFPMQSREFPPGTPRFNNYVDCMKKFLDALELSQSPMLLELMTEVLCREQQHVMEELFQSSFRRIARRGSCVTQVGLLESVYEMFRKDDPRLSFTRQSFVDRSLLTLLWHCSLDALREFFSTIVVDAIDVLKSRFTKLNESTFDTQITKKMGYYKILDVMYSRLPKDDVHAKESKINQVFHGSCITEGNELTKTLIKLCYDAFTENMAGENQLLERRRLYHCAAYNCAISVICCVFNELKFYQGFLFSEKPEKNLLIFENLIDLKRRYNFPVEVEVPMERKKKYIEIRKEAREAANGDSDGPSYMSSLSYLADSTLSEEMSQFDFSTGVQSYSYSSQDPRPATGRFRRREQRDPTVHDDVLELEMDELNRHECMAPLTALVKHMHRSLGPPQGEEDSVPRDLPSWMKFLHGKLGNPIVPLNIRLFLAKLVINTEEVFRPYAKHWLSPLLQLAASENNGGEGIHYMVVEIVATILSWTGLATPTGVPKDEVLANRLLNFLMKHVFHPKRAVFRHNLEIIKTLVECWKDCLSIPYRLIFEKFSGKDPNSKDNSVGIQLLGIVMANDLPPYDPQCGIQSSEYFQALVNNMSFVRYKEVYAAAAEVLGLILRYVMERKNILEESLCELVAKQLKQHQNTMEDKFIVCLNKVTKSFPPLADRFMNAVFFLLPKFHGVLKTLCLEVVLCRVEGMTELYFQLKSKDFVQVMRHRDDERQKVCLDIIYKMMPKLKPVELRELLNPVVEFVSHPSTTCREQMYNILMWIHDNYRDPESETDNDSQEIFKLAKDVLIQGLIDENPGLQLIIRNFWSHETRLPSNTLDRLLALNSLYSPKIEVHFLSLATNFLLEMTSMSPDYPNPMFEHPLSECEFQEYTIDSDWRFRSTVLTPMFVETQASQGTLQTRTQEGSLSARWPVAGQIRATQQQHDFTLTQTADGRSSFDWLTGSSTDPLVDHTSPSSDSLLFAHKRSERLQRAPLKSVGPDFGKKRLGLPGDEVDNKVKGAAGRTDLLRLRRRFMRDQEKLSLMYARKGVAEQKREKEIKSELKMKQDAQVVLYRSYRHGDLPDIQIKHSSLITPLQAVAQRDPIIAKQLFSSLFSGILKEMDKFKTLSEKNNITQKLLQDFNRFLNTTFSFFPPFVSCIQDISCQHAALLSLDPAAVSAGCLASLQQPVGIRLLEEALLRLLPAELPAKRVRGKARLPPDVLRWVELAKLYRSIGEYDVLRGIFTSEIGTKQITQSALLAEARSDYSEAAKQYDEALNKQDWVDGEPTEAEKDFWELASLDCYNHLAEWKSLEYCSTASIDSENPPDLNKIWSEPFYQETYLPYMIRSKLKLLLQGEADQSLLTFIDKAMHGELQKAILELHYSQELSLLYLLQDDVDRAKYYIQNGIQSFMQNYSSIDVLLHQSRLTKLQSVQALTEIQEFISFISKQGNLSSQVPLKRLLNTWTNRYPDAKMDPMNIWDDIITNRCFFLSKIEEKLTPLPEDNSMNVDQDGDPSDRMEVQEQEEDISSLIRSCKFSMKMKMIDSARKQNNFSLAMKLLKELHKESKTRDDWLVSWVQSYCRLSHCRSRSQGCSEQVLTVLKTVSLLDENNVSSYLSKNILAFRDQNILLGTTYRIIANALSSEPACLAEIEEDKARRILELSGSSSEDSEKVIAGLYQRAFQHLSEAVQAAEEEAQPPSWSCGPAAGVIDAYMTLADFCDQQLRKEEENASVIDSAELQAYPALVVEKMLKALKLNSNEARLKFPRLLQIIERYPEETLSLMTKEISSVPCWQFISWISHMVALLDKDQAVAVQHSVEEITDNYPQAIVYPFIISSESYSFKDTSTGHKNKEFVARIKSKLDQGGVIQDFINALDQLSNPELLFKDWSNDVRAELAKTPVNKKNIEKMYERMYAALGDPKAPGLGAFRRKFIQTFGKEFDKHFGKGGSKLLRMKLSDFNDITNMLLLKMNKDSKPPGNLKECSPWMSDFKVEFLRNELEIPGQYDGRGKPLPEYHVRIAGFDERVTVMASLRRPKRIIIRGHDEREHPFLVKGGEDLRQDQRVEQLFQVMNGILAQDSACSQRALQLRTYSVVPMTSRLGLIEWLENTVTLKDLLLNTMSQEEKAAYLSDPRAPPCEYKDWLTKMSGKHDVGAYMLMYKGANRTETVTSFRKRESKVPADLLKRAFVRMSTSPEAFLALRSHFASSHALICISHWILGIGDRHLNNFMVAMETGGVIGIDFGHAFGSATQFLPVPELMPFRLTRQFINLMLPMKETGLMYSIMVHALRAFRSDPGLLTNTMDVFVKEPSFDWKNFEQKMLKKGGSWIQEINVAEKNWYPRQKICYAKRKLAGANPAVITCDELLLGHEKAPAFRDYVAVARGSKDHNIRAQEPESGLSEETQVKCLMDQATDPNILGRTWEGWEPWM
Chain of 320 wild-type protein kinases (Homo sapiens, UniProt Q07912) (Q07912 whole entry): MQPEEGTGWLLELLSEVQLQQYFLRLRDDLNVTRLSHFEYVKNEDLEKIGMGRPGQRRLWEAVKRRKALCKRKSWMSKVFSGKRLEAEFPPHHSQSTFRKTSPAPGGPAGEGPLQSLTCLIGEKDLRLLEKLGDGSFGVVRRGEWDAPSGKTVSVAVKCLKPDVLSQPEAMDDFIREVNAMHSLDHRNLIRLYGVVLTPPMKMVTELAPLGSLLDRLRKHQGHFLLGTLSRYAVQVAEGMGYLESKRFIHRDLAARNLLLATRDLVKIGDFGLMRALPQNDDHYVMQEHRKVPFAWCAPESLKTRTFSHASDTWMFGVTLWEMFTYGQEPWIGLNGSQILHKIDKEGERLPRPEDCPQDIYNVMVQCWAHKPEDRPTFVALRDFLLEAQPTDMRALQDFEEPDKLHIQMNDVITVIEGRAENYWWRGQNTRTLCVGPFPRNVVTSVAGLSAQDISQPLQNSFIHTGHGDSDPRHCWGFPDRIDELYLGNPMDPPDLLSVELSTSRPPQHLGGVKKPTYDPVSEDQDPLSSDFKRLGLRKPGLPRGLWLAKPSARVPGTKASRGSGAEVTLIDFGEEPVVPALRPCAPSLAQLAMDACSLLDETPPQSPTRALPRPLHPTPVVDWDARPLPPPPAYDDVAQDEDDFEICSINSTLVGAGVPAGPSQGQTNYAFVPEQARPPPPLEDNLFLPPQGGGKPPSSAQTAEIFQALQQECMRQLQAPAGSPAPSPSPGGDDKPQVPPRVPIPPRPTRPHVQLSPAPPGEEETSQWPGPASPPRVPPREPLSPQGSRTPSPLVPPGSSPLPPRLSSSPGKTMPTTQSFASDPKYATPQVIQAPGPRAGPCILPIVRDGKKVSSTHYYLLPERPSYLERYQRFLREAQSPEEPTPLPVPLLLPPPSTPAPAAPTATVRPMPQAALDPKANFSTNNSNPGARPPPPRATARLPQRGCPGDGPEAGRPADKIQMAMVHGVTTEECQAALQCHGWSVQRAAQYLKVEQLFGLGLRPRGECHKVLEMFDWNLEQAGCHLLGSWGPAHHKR

SMILES	Residual activity ([1]; 1.0E-06 M)	Residual activity ([1]; 1.0E-07 M)	Residual activity ([2]; 1.0E-06 M)	Residual activity ([2]; 1.0E-07 M)	Residual activity ([3]; ACK1, 1.0E-06 M)	Residual activity ([3]; ACK1, 1.0E-07 M)	Residual activity, TAOK2 ([4]; assay conc. 1.0E-06 M)	Residual activity, TAOK2 ([4]; assay conc. 1.0E-07 M)	Residual activity ([5]; HIPK3, 1.0E-06 M)	Residual activity ([5]; HIPK3, 1.0E-07 M)
C#Cc1cc(Nc2ncnc3cc(I)ccc23)ccc1Cl [Compound 41]	100 % of control	96 % of control	76 % of control	87 % of control	98 % of control	134 % of control	96 % of control	110 % of control	103 % of control	98 % of control
C#Cc1cc(Nc2ncnc3cc(OC)c(OC)cc23)ccc1Cl [Compound 45]	85 % of control	108 % of control	85 % of control	73 % of control	63 % of control	100 % of control	106 % of control	109 % of control	97 % of control	102 % of control
